In one data set the target is NMDA receptors. In kind it is cell-based, rat.
For data set [1] the following is noted: cited from earlier work.
Data set [2] has as its system bloodstream form T. brucei (strain 427). Format: cell-based, Trypanosoma brucei.
The subject of a further data set is VSV in HEL cells. Format: cell-based, vesicular stomatitis virus.
Data set [3] has as its system vesicular stomatitis virus (VSV) in HeLa cells. The following applies: for EC50: read-out: EC50 (50% antiviral effective concentration) against VSV.
Data set [4] relates to influenza A/Puerto Rico/8/34 (H1N1). Description: Influenza virus assay, A/H1N1. Format: cell-based. The following applies: read-out: antiviral EC50 against influenza A/H1N1 subtype.
[5] abbreviates: read-out: IC50, Glutamate (100 μM).

Values joined by “and” are separate entries in the source; they are usually repeats but may differ in a detail not shown here. Equal entries are not always repeated. “Also recorded” adds a separate entry of the source. Where two headings read alike, the source gives them in different places.

By IC50 is commonly meant the midpoint of a concentration-inhibition curve. “6,7,8,9,10,11-Hexahydro-9-methyl-5,7:9,11-dimethano-5H-benzocyclononen-7-amine hydrochloride [Compound 3]”: the concentration for half-maximal inhibition (IC50) at NMDA receptors (setting [5]) was found to be 22 ± 3.9 µM; on NMDA receptors (read-out: IC50, NMDA (100 μM)), 13.6 ± 3.4 µM.

Consider `c1ccc(CNC23OC4C5C6CC(C7C6C4C72)C53)cc1` (stereo not shown) [NGP1-01], for which, in data set [1], the “stability in aqueous medium (in words)” value is given as “decomposes easily in aqueous medium”.

Take “N,N-Dimethyl-6,7,8,9,10,11-hexahydro-9-methyl-5,7:9,11-dimethano-5H-benzocyclononen-7-amine hydrochloride [Compound 11]”: the IC50 at NMDA receptors (setting [5]) was 87 ± 28 µM; on NMDA receptors (read-out: IC50, NMDA (100 μM)), 12 µM and 11.8 µM. In addition, the “inhibitory activity against cultured bloodstream form T. brucei (in words)” value in data set [2] (at 5 μg mL^−1 (15–20 μM)) is recorded as “little or no inhibitory activity”.

In the case of “N,N-dipropargyl-6,7,8,9,10,11-hexahydro-9-methyl-5,7:9,11-dimethano-5H-benzocyclononen-7-amine hydrochloride [Compound 10]”, the “activity against VSV in HEL cells (in words)” value in the data set with VSV in HEL cells was “not active”. For the same compound, in data set [3], the “selectivity index (ratio of cytotoxic to antiviral concentration)” value worked out at 25 and the EC50 is 4 µM.

As for “N-(6,7,8,9,10,11-hexahydro-9-methyl-5,7:9,11-dimethano-5H-benzocyclononen-7-yl)piperidine hydrochloride [Compound 12]”, the IC50 at NMDA receptors (setting [5]) was above 500 µM. Further, the “activity against VSV in HEL cells (in words)” value in the data set on VSV in HEL cells is given as “not active”. For the same compound, the EC50 in data set [3] is 54 µM.

One may read the IC90 as the concentration at which the effect reaches the 90% level. With “N-Benzyl-6,7,8,9,10,11-hexahydro-9-methyl-5,7:9,11-dimethano-5H-benzocyclononen-7-amine hydrochloride [Compound 6]”, in the data set with NMDA receptors, the “NMDA receptor antagonist activity (in words)” value was “devoid of activity; also recorded: not active as NMDA receptor antagonist”. In addition, in data set [2] (read-out: IC50 against cultured bloodstream form T. brucei), the IC50 worked out at 3 ± 0.32 µM. Besides, in data set [2] (read-out: IC90 against cultured bloodstream form T. brucei), the IC90 came out at 6.55 ± 0.32 µM. In addition, the EC50 in data set [4] was found to be 10 µM.

As for “N-Benzyl-N-methyl-6,7,8,9,10,11-hexahydro-9-methyl-5,7:9,11-dimethano-5H-benzocyclononen-7-amine hydrochloride [Compound 7]”, the “NMDA receptor antagonist activity (in words)” value in the data set with NMDA receptors is given as “devoid of activity”.

Turning to “N-Methyl-6,7,8,9,10,11-hexahydro-9-methyl-5,7:9,11-dimethano-5H-benzocyclononen-7-amine hydrochloride [Compound 8]”, the concentration for half-maximal inhibition (IC50) at NMDA receptors (setting [5]) worked out at 455 ± 216 µM; on NMDA receptors (read-out: IC50, NMDA (100 μM)) it was 19.4 ± 3.3 µM.

As to “N-Propargyl-6,7,8,9,10,11-hexahydro-9-methyl-5,7:9,11-dimethano-5H-benzocyclononen-7-amine hydrochloride [Compound 9]”, the IC50 on NMDA receptors (setting [5]) was above 500 µM; on NMDA receptors (read-out: IC50, NMDA (100 μM)), 27.5 ± 13.2 µM. Moreover, in data set [2] (versus rimantadine), the “IC90 lower than that of rimantadine (fold)” value is given as “more than 4 times”.

The values above are taken from article PMC3353318 (Bioorganic & Medicinal Chemistry, 2011).
